One data set in a line: MTT viability, HT29. Type of data set: cell-based, human. To be noted: human, HT29 colorectal adenocarcinoma cells, 1000 µM (IC50 exceeded 1000 µM), read-out: viability ± standard deviation at 1000 µM. In outline: (§1)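 Viability is given as the optical density ratio of treated to control wells after 24 h compound treatment at 37 °C. Formazan from a 4 h MTT incubation is solubilised with SDS/DMF and measured at 570 nm.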

The next data set is described as follows: MTT viability, IEC6. The data set is classed as cell-based. To be noted: rat, IEC-6 small intestine epithelial cells, 1000 µM (IC50 exceeded 1000 µM), read-out: viability ± standard deviation at 1000 µM. In outline:
as §1

The nature of the next data set: MTT viability, HL-60. Particulars: human, HL-60 promyelocytic leukaemia cells, HL-60, MTT, 1000 µM (IC50 exceeded 1000 µM), read-out: viability ± standard deviation at 1000 µM. The data set is classed as cell-based, human. In outline:
as §1

In data set [1] the test system is Enterococcus faecium ATCC 35667. On the set-up: method as in doi:10.1002/ffj.3238. Particulars: data presented by the authors before; cited from earlier work.
Another data set can be described thus: MTT viability, HaCaT. Type of data set: cell-based, human. Particulars: human, HaCaT keratinocytes, 1000 µM (IC50 exceeded 1000 µM), read-out: viability ± standard deviation at 1000 µM. In outline: as §1
Data set [2] relates to Staphylococcus aureus ATCC 43300. On the set-up: method as in doi:10.1002/ffj.3238. To be noted: data presented by the authors before; cited from earlier work.
The test system of data set [3] is Escherichia coli ATCC 25922. Further details: method as in doi:10.1002/ffj.3238. Particulars: data presented by the authors before; cited from earlier work.
In data set [4] the test system is Enterococcus faecalis ATCC 51299. On the set-up: method as in doi:10.1002/ffj.3238. To be noted: data presented by the authors before; cited from earlier work.
For data set [5], the system named is Acinetobacter baumannii ATCC 19606. On the set-up: method as in doi:10.1002/ffj.3238. Particulars: data presented by the authors before; cited from earlier work.
Data set [6] deals with Klebsiella pneumoniae ATCC 700603. On the set-up: method as in doi:10.1002/ffj.3238. Particulars: data presented by the authors before; cited from earlier work.
The next data set is described as follows: MTT viability, MEWO. The data set is classed as cell-based, human. Particulars: human, MEWO malignant melanoma cells, 1000 µM (IC50 exceeded 1000 µM), read-out: viability ± standard deviation at 1000 µM. In outline: as §1
A short description of another data set: MTT viability, HFIG. To be noted: human, HFIG (HFIB-G) gingival fibroblasts, 1000 µM (IC50 exceeded 1000 µM), read-out: viability ± standard deviation at 1000 µM. Type of data set: cell-based, human. In outline:
as §1

For data set [7], the system named is Promyelocytic Leukaemia HL-60. The data set can be described thus: MTT viability, HL-60. The data set is classed as cell-based, human. Particulars: HL-60, MTT, range 10–1000 µM, read-out: half maximal inhibitory concentration (IC50), interpolated. In outline: as §1
Data set [8] has as its system human melanoma MDA/MB‑435 cell lines. Further details: method as in PMID 19084293. To be noted: cited from earlier work.
Data set [9] relates to colon carcinoma HCT-8 cells. Further details: method as in PMID 19084293. To be noted: cited from earlier work.

Molecules are shown by their SMILES. Like-named read-outs stand apart in the source and are kept apart here.

The values that follow come from paper PMC6272674, “Selected Compounds Structurally Related to Acyclic Sesquiterpenoids and Their Antibacterial and Cytotoxic Activity” (Molecules, 2015).

Consider `CC(=O)CCC=C(C)C(C)CCCC(C)C` (stereo not drawn) [Compound 8], for which the viability at 24 h, 1000 µM in the data set “MTT viability, HT29” was 111%; in the data set “MTT viability, IEC6”, 97%; in the data set “MTT viability, HL-60”, 72%; in “MTT viability, HaCaT”, 90%; in “MTT viability, MEWO”, 94%; in “MTT viability, HFIG”, 81%. Moreover, the “Minimum Inhibitory Concentrations MIC” value is recorded as 28 µg/mL in data set [1]; 38 µg/mL in [2]; 18 µg/mL in data set [3]; 26 µg/mL in [4]; 22 µg/mL in [5]; 18 µg/mL in data set [6].
Consider `CC(=O)CCC=C(C)C(C)CCC=C(C)C` (stereo not drawn) [Compound 6], for which the viability at 24 h, 1000 µM in the data set “MTT viability, HT29” was 102%; in the data set “MTT viability, IEC6”, 95%; in “MTT viability, HL-60”, 67%; in the data set “MTT viability, HaCaT”, 118%; in the data set “MTT viability, MEWO”, 102%; in “MTT viability, HFIG”, 83%. For the same compound, the “Minimum Inhibitory Concentrations MIC” value in data set [1] was 16 µg/mL; in data set [2] it was 26 µg/mL; in data set [3], 14 µg/mL; in data set [4] it was 18 µg/mL; in data set [5], 12 µg/mL; in data set [6], 14 µg/mL.
On to `C=CC(C)(O)CC/C=C(\C)CCC=C(C)C` (stereo not drawn) [Nerolidol (2), nerolidol, reference compound], for which the viability at 24 h, 1000 µM was 103% in the data set “MTT viability, HT29”; 76% in “MTT viability, IEC6”; 102 ± 5% in “MTT viability, HaCaT”; 99% in “MTT viability, MEWO”; 75% in the data set “MTT viability, HFIG”. The IC50 in data set [7] (Homo sapiens, HL-60, 24 h) was around 135 µM. Besides, the toxicity result in data set [8] and in data set [9] was “no toxicity” in each case. For the same compound, the “Minimum Inhibitory Concentrations MIC” value is listed as 32 µg/mL in data set [1]; 48 µg/mL in data set [2]; 46 µg/mL in data set [3]; 38 µg/mL in data set [4]; 26 µg/mL in data set [5]; 16 µg/mL in data set [6].
As for `CC(=O)CCC=C(C)C(C)CC(C)CCC=C(C)C` (stereo not drawn) [Compound 11], the viability at 24 h, 1000 µM was determined as 92% in “MTT viability, HT29”; 81% in “MTT viability, IEC6”; 59% in “MTT viability, HL-60”; 100% in “MTT viability, HaCaT”; 112% in the data set “MTT viability, MEWO”; 102% in the data set “MTT viability, HFIG”. The “Minimum Inhibitory Concentrations MIC” value in [1] was 18 µg/mL; in data set [2], 26 µg/mL; in [3] it was 28 µg/mL; in data set [4], 22 µg/mL; in data set [5], 14 µg/mL; in data set [6], 28 µg/mL.
On to `CC(=O)CCC=C(C)CC(C)CCC=C(C)C` (stereo not drawn) [Compound 9], for which the viability at 24 h, 1000 µM was 107% in “MTT viability, HT29”; 76% in “MTT viability, IEC6”; 69% in the data set “MTT viability, HL-60”; 89% in the data set “MTT viability, HaCaT”; 83% in the data set “MTT viability, MEWO”; 85% in the data set “MTT viability, HFIG”. Also, the “Minimum Inhibitory Concentrations MIC” value in [1] is listed as 14 µg/mL; in [2] it was 28 µg/mL; in [3], 28 µg/mL; in [4], 18 µg/mL; in data set [5], 16 µg/mL; in data set [6] it was 18 µg/mL.
On to `CC(=O)CCC=CC(C)CCC=C(C)C` (stereo not drawn) [Compound 7], for which the viability at 24 h, 1000 µM in “MTT viability, HT29” stood at 98%; in “MTT viability, IEC6”, 82%; in the data set “MTT viability, HL-60”, 67%; in the data set “MTT viability, HaCaT”, 101%; in “MTT viability, MEWO” it was 99%; in the data set “MTT viability, HFIG” it was 92%. Besides, the “Minimum Inhibitory Concentrations MIC” value is on record as 18 µg/mL in data set [1]; 26 µg/mL in data set [2]; 16 µg/mL in data set [3]; 16 µg/mL in data set [4]; 14 µg/mL in data set [5]; 16 µg/mL in [6].
With `CC(=O)CCC=C(C)CCC(C)CCC=C(C)C` (stereo not drawn) [Compound 10], the viability at 24 h, 1000 µM came out at 103% in the data set “MTT viability, HT29”; 78% in the data set “MTT viability, IEC6”; 62% in “MTT viability, HL-60”; 112% in “MTT viability, HaCaT”; 93% in the data set “MTT viability, MEWO”; 98% in “MTT viability, HFIG”. Further, the “Minimum Inhibitory Concentrations MIC” value in data set [1] is 18 µg/mL; in data set [2], 46 µg/mL; in [3] it was 32 µg/mL; in data set [4] it was 26 µg/mL; in data set [5], 16 µg/mL; in data set [6], 18 µg/mL.
With `C=CC(C)(O)CCC(C)CCC=C(C)C` (stereo not drawn) [Compound 16], the viability at 24 h, 1000 µM came to 102% in the data set “MTT viability, HT29”; 113% in “MTT viability, IEC6”; 89% in “MTT viability, HaCaT”; 100% in the data set “MTT viability, MEWO”; 106% in “MTT viability, HFIG”. The IC50 in [7] (24 h) is 950 µM; in data set [7] (Homo sapiens, HL-60, 24 h), around 1000 µM. Further, the “Minimum Inhibitory Concentrations MIC” value in data set [1] is 36 µg/mL; in data set [2], 48 µg/mL; in data set [3], 32 µg/mL; in [4], 38 µg/mL; in data set [5], 22 µg/mL; in [6], 24 µg/mL.

As a reminder, the viability is a read-out of living cells in per cent, often relative to untreated cells.
